The values that follow come from article PMC5904360, “Soluble N-Ethylmaleimide-Sensitive Factor Attachment Protein Receptor-Derived Peptides for Regulation of Mast Cell Degranulation” (Frontiers in Immunology, 2018).

The target of test [1] is T1, SN23-Syn4-Vp2 SNARE complex (Rattus norvegicus, UniProt O70377+P63045+Q08850).
T1 construct: Syn4 (amino acids 1–298); SNAP-23 (amino acids 1–210); full-length VAMP2 (VpF, amino acids 1–116); GST (N, cleaved yes); made in house; host or cells: Escherichia coli Rosetta(DE3)pLysS
T1 sequence (Q08850 whole entry, the tested form may be a part): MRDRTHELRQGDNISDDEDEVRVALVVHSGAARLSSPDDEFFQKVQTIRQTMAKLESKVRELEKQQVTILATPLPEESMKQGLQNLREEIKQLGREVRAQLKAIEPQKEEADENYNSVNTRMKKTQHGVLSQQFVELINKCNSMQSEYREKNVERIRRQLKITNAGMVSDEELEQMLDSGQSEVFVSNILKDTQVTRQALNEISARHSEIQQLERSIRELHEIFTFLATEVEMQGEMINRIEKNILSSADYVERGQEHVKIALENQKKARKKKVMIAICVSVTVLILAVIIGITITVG
T1 sequence (O70377 whole entry, the tested form may be a part): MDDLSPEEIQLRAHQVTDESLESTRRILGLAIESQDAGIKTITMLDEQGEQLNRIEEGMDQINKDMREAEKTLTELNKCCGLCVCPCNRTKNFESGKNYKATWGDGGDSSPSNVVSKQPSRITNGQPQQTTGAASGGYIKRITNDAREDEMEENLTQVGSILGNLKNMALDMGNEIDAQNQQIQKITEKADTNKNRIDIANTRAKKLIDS
T1 sequence (P63045 whole entry, the tested form may be a part): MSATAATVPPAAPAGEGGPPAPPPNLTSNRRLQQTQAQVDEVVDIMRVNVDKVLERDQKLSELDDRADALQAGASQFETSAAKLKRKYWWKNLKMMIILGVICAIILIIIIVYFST
In words: SNARE-driven membrane fusion (total lipid mixing) assay with proteoliposomes. The class given is biochemical. Particulars: for inhibition of membrane fusion (lipid mixing): inhibitor applied to T-vesicles, T:V 9:1, 37°C, NBD dequenching, Vp2S/Vp8S at 10 µM, three independent experiments (Figure 3B-D); for inhibition of membrane fusion, peptide added after preincubation: peptide added after preincubation of T- and V-liposomes at 4°C overnight (partially zippered SNAREs) (Figure 4A); for inhibition of membrane fusion, peptide added before preincubation: peptide added before preincubation of T- and V-liposomes at 4°C overnight (Figure 4A). The text has this:
Total RNA was obtained from RBL-2H3 cells using TRIzol® Reagent (#15596026, Invitrogen, Carlsbad, CA, USA) and served as a template for cDNA synthesis with M-MLV reverse transcriptase (M1705, Promega, Madison, WI, USA) according to the manufacturer’s protocol. The cDNAs amplified for rat Syn4, SNAP-23, VAMP2, VAMP4, VAMP7, and VAMP8 using each primer pair ([4]), were cloned into the pGEX-4T 1 vector. The mast cell SNARE proteins [Syn4 (amino acids 1–298), SNAP-23 (amino acids 1–210), full-length VAMP2 (VpF, amino acids 1–116), VAMP4 (amino acids 1–141), and VAMP8 (amino acids 1–100)] were expressed in Escherichia coli Rosetta(DE3)pLysS (#70956, Novagen, Darmstadt, Germany) and purified as glutathione-S-transferase-tagged fusion proteins as reported previously ([8]).
To prepare the unilamellar liposomes, a 50-mM lipid mixture of palmitoyl-2-oleoylphosphatidylcholine (POPC) (#850457, Avanti Polar Lipids, Alabaster, AL, USA):1,2-dioleoyl-phosphatidylserine (DOPS) (#840035, Avanti Polar Lipids) at 65:35 mol% was dried in a glass tube under a gentle stream of nitrogen gas and then exposed to a vacuum overnight. The resultant lipid film was resuspended in dialysis buffer (25 mM HEPES and 100 mM KCl, pH 7.4) by vortexing, followed by an extrusion step with polycarbonate membrane filters having a pore size of 100 nm (#610005, Avanti Polar Lipids). To prepare proteoliposomes, binary T-SNAREs, which were pre-formed by mixing Syn4 and SNAP-23 at room temperature for 60 min, were incubated with 50 mM unilamellar liposomes for 15 min at the same temperature, resulting in a 50:1 lipid/protein molar ratio ([9]).
For the preparation of V-SNARE proteoliposomes, a 10-mM premixed lipid solution [POPC:DOPS:N-(7-nitro-2-1,3-benzoxadiazol-4-yl (NBD))-phosphatidylserine (#810198, Avanti Polar Lipids):[…] (#810150, Avanti Polar Lipids) = 62:35:1.5:1.5 (molar ratio)] was used for the preparation of fluorescent liposomes in the same manner as above. The prepared liposomes were then mixed with VAMP2 for 15 min at room temperature. The liposome/protein mixture was diluted twice to bring the concentration of n-octyl glucoside (O8001, Sigma-Aldrich) below the critical micelle concentration. After overnight dialysis against 1L dialysis buffer at 4°C to remove the detergent, SM-2 bio-beads (#1523920, Bio-Rad Laboratories, Hercules, CA, USA) were added to the sample to remove any remaining n-octyl glucoside. The solution was then centrifuged at 10,000 × g to remove the protein/lipid aggregates, and the final lipid concentrations of both the T- and V-liposomes were adjusted to 1 mM with a lipid-to-protein ratio of 50:1.
A total lipid mixing assay using the T- and V-liposomes was performed as described previously with minor modifications ([8]). […] The fusion was monitored using the dequenching of NBD fluorescence signal (excitation 465 nm/emission 530 nm). After at least 80 min of fusion, the maximum NBD signal was obtained by adding 0.1% Triton X-100™. All the lipid-mixing experiments were performed at 37°C.

The next test concerns the target T2, SN23-Syn4-Vp2 complex (Rattus norvegicus, UniProt O70377+P63045+Q08850).
T2 construct: Lysates of RBL-2H3 cells; endogenous in cells; host or cells: RBL-2H3 (ATCC CRL-2256)
In words: Co-immunoprecipitation of SNARE complexes in activated RBL-2H3 cells, anti-SNAP-23 blot. The class given is cell-based. Particulars: peptides added to the medium after A23187 pretreatment; IP of Vp2, blot anti-SNAP-23 (Figure 4C). Here is the method: (§1) Lysates of RBL-2H3 cells (0.5–1 × 10^6 cells), which were obtained by the addition of 1 mL lysis buffer (50 mM Tris–HCl, 150 mM NaCl, 1% Triton X-100™, 1 mM EDTA, pH 7.5) supplemented with a protease inhibitor cocktail (Calbiochem®, Merck Millipore, Billerica, MA, USA), were centrifuged at 13,000 g at 4°C to remove cell debris and precleared with 100 µL protein G Sepharose® (GE Healthcare) for 2 h at 4°C. The precleared lysates were incubated with antibodies against SNARE proteins (Syn4, SNAP-23, VAMP2, and VAMP8) for 2 h at 4°C for binding, and then the antibody–antigen complexes were precipitated by incubation with a protein G slurry overnight with constant shaking. After an extensive washing step with lysis buffer, an immunoblotting analysis was performed for the precipitates. The immunoprecipitated proteins and cell lysates were electrophoresed on 12% sodium dodecyl sulfate-polyacrylamide gel electrophoresis gels and then transferred to nitrocellulose blotting membranes (GE Healthcare). After blocking the membranes in TBST (10 mM Tris–HCl, 150 mM NaCl, and 0.05% Tween® 20, pH 8) containing 0.5% BSA and 5% skim milk for 1 h at room temperature, primary anti-SNAP-23 antibody (1:1,000 dilution) in TBST supplemented with 1% BSA and 0.01% sodium azide was added and incubated at 4°C overnight. The membranes were washed with TBST, treated with a horseradish peroxidase-conjugated secondary anti-mouse IgG antibody (A4416, Sigma-Aldrich), and visualized using enhanced chemiluminescence solution for the development of a luminescent signal.

The test system of test [2] is complexes containing both Syn4 and SN23. The test is described as above. The class given is cell-based, rat. To be noted: peptides added to the medium after A23187 pretreatment; co-IP, blot anti-SNAP-23 (Figure 4C). Here is the method: as §1, with “The membranes were washed with TBST, treated with a horseradish peroxidase-conjugated secondary anti-mouse IgG antibody (A4416, Sigma-Aldrich), and visualized using enhanced chemiluminescence solution for the development of a luminescent signal.” left out

T2 sequence (Q08850 whole entry): as the sequence (Q08850 whole entry, the tested form may be a part) above
T2 sequence (O70377 whole entry): as the sequence (O70377 whole entry, the tested form may be a part) above
T2 sequence (P63045 whole entry): as the sequence (P63045 whole entry, the tested form may be a part) above

In the case of “SARHSEIQQLERTIREL [Syn4N, 17-mer peptide, N-terminal region of syntaxin 4 SNARE motif]”, in test [1], the “inhibition of membrane fusion (lipid mixing)” value was “inhibited membrane fusion by both the SN23-Syn4-Vp2 and SN23-Syn4-Vp8 complexes”; the “inhibition of membrane fusion, peptide added after preincubation” value is given as “inhibitory activities significantly diminished”; the “inhibition of membrane fusion, peptide added before preincubation” value is “inhibited the membrane fusion induced by both SN23-Syn4-Vp2 and SN23-Syn4-Vp8”. On SN23-Syn4-Vp2 complex, the “SNARE complex formation in cells (amount of SN23-Syn4-Vp2 complex)” value was “reduced”. Also, in test [2], the “amount of complexes containing both Syn4 and SN23 (binary Syn4-SN23 and ternary complexes)” value is listed as “most dramatically reduced”.

As to “EDEMEENLTQVGSILGN [SC23N, 17-mer peptide, N-terminal region of SNAP-23 SNARE motif SC23]”, in test [1], the “inhibition of membrane fusion (lipid mixing)” value was “inhibited membrane fusion by both the SN23-Syn4-Vp2 and SN23-Syn4-Vp8 complexes”; the “inhibition of membrane fusion, peptide added after preincubation” value was “inhibitory activities significantly diminished”; the “inhibition of membrane fusion, peptide added before preincubation” value is “inhibited the membrane fusion induced by both SN23-Syn4-Vp2 and SN23-Syn4-Vp8”. Also, at SN23-Syn4-Vp2 complex, the “SNARE complex formation in cells (amount of SN23-Syn4-Vp2 complex)” value was “reduced”. The “amount of complexes containing both Syn4 and SN23 (binary Syn4-SN23 and ternary complexes)” value in test [2] is listed as “most dramatically reduced”.
